Experimental data taken from US12090225B2 (Avalyn Pharma Inc., priority 2018, dated 2024).
≈ marks a conversion by molar mass, not a printed value.

Experiments:
[1] = Solid state and chemical stability of nintedanib HBr and HCl salts through 6 months; assay type: physicochemical; conditions: for Weight loss: TGA/DSC
Excerpt: Table 24 and Table 25 summarize the total impurities (by HPLC), polymorphic form (by X-ray powder diffraction) and, where applicable, weight loss (by TGA/DSC) for both the HCl and HBr salt forms. […] There were no changes in polymorphic form for both salt forms stored at 25 C/60% RH condition.

[2] = 7 day stability testing of salts (40° C./75% RH, 80° C., ambient light; HPLC purity, XRPD); assay type: physicochemical; conditions: for Purity (%) / XRPD pattern after 7 day stability testing: listed as HBr salt
Method: High Performance Liquid Chromatography-Ultraviolet Detection (HPLC-UV): Instrument: Dionex Ultimate 3000; Column: Acquity CSH C18 100 mm×2.1 mm 1.7 μm; Column Temperature: 50° C.; Autosampler Temperature: Ambient; UV wavelength: 210 nm; Injection Volume: 4 μL; Flow Rate: 0.6 mL/min; Mobile Phase A: 0.1% formic acid in water; Mobile Phase B: 0.1% formic acid in acetonitrile. The HPLC method used the gradient in Table 2.
FT-IR appeared to be consistent with the structure. […] The material was physically stable to changes in temperature and humidity when stored for one week.
A new, poorly crystalline pattern was produced when stored at 40° C./75% RH—Pattern 4.
Purity of these materials remained unchanged (as shown in Table) apart from the sample stored at ambient light, where a 0.5% drop in purity was observed.

[3] = Feasibility assessment of ready-to-use nintedanib HBr, HCl and esylate formulations; assay type: physicochemical; conditions: NaCl at 30 mM or higher concentrations
[4] = HBr and HCl salts-filter compatibility study; assay type: physicochemical; conditions: 0.22 μm PTFE filter; 3% PG solution; glass vials, ambient room condition
Method: HBr and HCl salts-filter compatibility study: this study was conducted to assess the compatibility of the HBr and the HCl salts with various membrane filters. […] The glass vials were stored at ambient room condition and visual appearance was periodically inspected.

[5] = Citrate buffer formulation; assay type: physicochemical
[6] = Disproportionation/hydration studies (pH, XRPD pattern); assay type: physicochemical; conditions: for pH Pre-Agitation: listed as HBr salt
Excerpt: No XRPD data could be compiled on the hydration or disproportionation of the salt due to the high solubility in water and acetone/water mixtures.
The salt only remained Pattern 1 at 0.3 aw. New patterns 6 and 7 are likely hydrated due to the high water activity conditions for production.

[7] = Inhaled pharmacokinetics of nintedanib salt forms (intratracheal); assay type: in vivo, C57BL/6 mice; conditions: 1 mg/kg (base equivalent) IT, mice; listed as nintedanib hydrobromide
[8] = Aqueous solubility assessment of salts; assay type: physicochemical; conditions: primary screen samples
[9] = Solvent solubility screen; assay type: physicochemical; conditions: thermodynamic from solid, read-out: Approximate Solubility
Method: Between each addition, the mixture was checked for dissolution and where no dissolution was apparent, the mixture was heated to ca. 40° C. and checked again. Samples where the material dissolved, were left to evaporate. Any solids produced from evaporation samples were analyzed by XRPD in order to assess the polymorphic form.
The solvent systems used during the solvent solubility screen, together with the corresponding ICH Class, are detailed in Table 4.

[10] = Plasma and lung pharmacokinetics of nintedanib esylate, oral vs intratracheal aerosol; assay type: in vivo, C57BL/6 mice; conditions: for Lung Cmax / plasma AUC as fraction of the 100 mg/kg oral dose: mice
[11] = Therapeutic silica model: body and lung weights; assay type: in vivo, C57BL/6 mice; conditions: oral 30 mg/kg BID and inhaled (IN) 0.021-[…] QD nintedanib HBr
Method: Briefly, acclimated 20-22 g female C57BL/6 mice were administered silica on day 1 by the intratracheal route. On the tenth day, treatment was initiated with either saline or nintedanib. […] Sham and silica control groups received saline either IN or PO. Five animals were enrolled into sham groups, 10 animals enrolled into each PO dose groups, and 13 animals were enrolled into each IN dosing group. […] Body weights were collected throughout the study, with lung weights at termination. Flexivent was performed to determine elastance (lung function; Table 59). Left lungs were extracted, stained as assessed for parenchymal collagen (Table 60) and α-smooth muscle actin (αSMA; Table 61), while right lungs were assessed for interleukin-1β (IL-1β; Table 62). As expected, all mice administered silica lost weight from days 0 to 4. All silica administered mice began to recover from weight loss at around day 6 and continued recovery reaching their initial weight by day 10 (first therapeutic intervention). […] Neither oral or inhaled (IN) treatment or vehicles altered these characteristics.

[12] = Human inhaled dose projection vs Ofev 150 mg oral; conditions: human projection
[13] = 40° C./75% RH, 2 months, listed as Nintedanib HBr salt
[14] = 40° C./75% RH, 6 months, listed as Nintedanib HBr salt
[15] = 0.5 mg/mL citrate buffer experiments, listed as HBr

SMILES: COC(=O)c1ccc2c(c1)NC(=O)/C2=C(\Nc1ccc(N(C)C(=O)CN2CCN(C)CC2)cc1)c1ccccc1 [Nintedanib HBr]
- Polymorphic form ([1]; 25° C./60 % RH, 1 week): Pattern 1
- Total impurities ([1]; 25° C./60 % RH, 1 week, listed as Nintedanib HBr salt): 0.40%
- Polymorphic form ([1]; 25° C./60 % RH, 2 months): Pattern 1
- Total impurities ([1]; 25° C./60 % RH, 2 months, listed as Nintedanib HBr salt): 0.42%
- Polymorphic form ([1]; 25° C./60 % RH, 4 weeks): Pattern 1
- Total impurities ([1]; 25° C./60 % RH, 4 weeks, listed as Nintedanib HBr salt): 0.33%
- Polymorphic form ([1]; 25° C./60 % RH, 6 months): Pattern 1
- Total impurities ([1]; 25° C./60 % RH, 6 months, listed as Nintedanib HBr salt): 0.47%
- Polymorphic form ([1]; 25° C./60 % RH, Initial): Pattern 1
- Weight loss ([1]; 25° C./60 % RH, Initial, listed as Nintedanib HBr salt): 0.23%
- Total impurities ([1]; 40° C./75% RH, 1 week, listed as Nintedanib HBr salt): 0.43%
- Weight loss ([1]; 40° C./75% RH, 2 months): 4.12%
- Polymorphic form [1, 13]: Pattern 4
- Total impurities [1, 13]: 0.41%
- Weight loss ([1]; 40° C./75% RH, 4 weeks): 1.33%
- Weight loss ([1]; 40° C./75% RH, 6 months): 3.72%
- Polymorphic form [1, 14]: Pattern 4
- Total impurities [1, 14]: 0.44%
- Weight loss ([1]; 40° C./75% RH, Initial, listed as Nintedanib HBr salt): 0.23%
- Purity (%) ([2]; 40° C./75% RH, 7 day stability testing): 99.7%
- XRPD pattern after 7 day stability testing ([2]; 40° C./75% RH): mixture of Pattern 1 and 4
- XRPD pattern after 7 day stability testing ([2]; 80° C. and ambient conditions/light): remain Pattern 1
- Purity (%) ([2]; 80° C., 7 day stability testing): 99.6%
- Purity (%) ([2]; Ambient, 7 day stability testing): 99.2%
- Purity (%) ([2]; Input): 99.7%
- drop in purity ([2]; stored at ambient light, 7 day): 0.5%
- compatibility with NaCl [3]: Neither Nintedanib HBr nor Nintedanib HCl is compatible
- visual appearance after filtration [4]: no change in appearance through 1 month
- Initial pH [5, 15]: 4.83
- pH 1 h [5, 15]: 4.82
- attempt to solubilize in citrate buffer ([5]; pH 4.8 buffer, ca. 0.5 mg/mL (Nintedanib)): unsuccessful
- Pattern (disproportionation/hydration) ([6]; Water Activity 0.3): 1
- pH Pre-Agitation ([6]; Water Activity 0.3 (acetone/water)): 4.84
- Pattern (disproportionation/hydration) ([6]; Water Activity 0.6): 4
- pH Pre-Agitation ([6]; Water Activity 0.6 (acetone/water)): 5.38
- Pattern (disproportionation/hydration) ([6]; Water Activity 0.9): New pattern (Pattern 6)
- pH Pre-Agitation ([6]; Water Activity 0.9 (acetone/water)): 5.56
- Pattern (disproportionation/hydration) ([6]; Water Activity 1): New pattern (Pattern 7)
- pH Pre-Agitation ([6]; Water Activity 1.0 (water)): 2.27
- lung half-life [7]: about 4 minutes
- pH (aqueous solubility measurement) [8]: 3.95
- solubility ([8]; water, thermodynamic from solid, read-out: Solubility (aqueous)): ~5000 µg/mL

SMILES: COC(=O)c1ccc2c(c1)NC(=O)/C2=C(\Nc1ccc(N(C)C(=O)CN2CCN(C)CC2)cc1)c1ccccc1 [Nintedanib, methyl (3Z)-3-[[4-[methyl-[2-(4-methylpiperazin-1-yl)acetyl]amino]anilino]-phenylmethylidene]-2-oxo-1H-indole-6-carboxylate]
- solubility ([9]; 1-butanol, 40 °C, organic solvent or mixture): < 10000 µg/mL
- solubility ([9]; 1-propanol, 40 °C, organic solvent or mixture): < 10000 µg/mL
- solubility ([9]; 2-propanol, 40 °C, organic solvent or mixture): < 11000 µg/mL
- solubility ([9]; 40 °C, aqueous with cosolvent or surfactant or cyclodextrin, 40% Methanol: 60% Water (% v/v)): < 10000 µg/mL
- solubility ([9]; 50% 2-propanol: 50% water (% v/v), 40 °C, aqueous with cosolvent or surfactant or cyclodextrin): < 10000 µg/mL
- solubility ([9]; N,N′-dimethylacetamide, organic solvent or mixture): 26000 µg/mL (≈ 48.2 mM)
- solubility ([9]; THF, 40 °C, organic solvent or mixture): < 10000 µg/mL
- solubility ([9]; acetone, 40 °C, organic solvent or mixture): < 10000 µg/mL
- solubility ([9]; acetonitrile, 40 °C, organic solvent or mixture): < 10000 µg/mL
- solubility ([9]; anisole, 40 °C, organic solvent or mixture): < 10000 µg/mL
- solubility ([9]; dichloromethane, organic solvent or mixture): 17000 µg/mL (≈ 31.5 mM)
- solubility ([9]; dimethylsulfoxide, 40 °C, organic solvent or mixture): < 10000 µg/mL
- solubility ([9]; ethanol, 40 °C, organic solvent or mixture): < 10000 µg/mL
- solubility ([9]; ethyl acetate, 40 °C, organic solvent or mixture): < 10000 µg/mL
- solubility ([9]; ethyl ether, 40 °C, organic solvent or mixture): < 10000 µg/mL
- solubility ([9]; heptane, 40 °C, organic solvent or mixture): < 10000 µg/mL
- solubility ([9]; isopropyl acetate, 40 °C, organic solvent or mixture): < 10000 µg/mL
- solubility ([9]; methanol, 40 °C, organic solvent or mixture): < 11000 µg/mL
- solubility ([9]; methylethyl ketone, 40 °C, organic solvent or mixture): < 10000 µg/mL
- solubility ([9]; methylisobutyl ketone, 40 °C, organic solvent or mixture): < 10000 µg/mL
- solubility ([9]; n-hexane, 40 °C, organic solvent or mixture): < 10000 µg/mL
- solubility ([9]; tert-butylmethyl ether, 40 °C, organic solvent or mixture): < 11000 µg/mL
- solubility ([9]; toluene, 40 °C, organic solvent or mixture): < 10000 µg/mL
- solubility ([9]; water, 40 °C, water): < 10000 µg/mL
- less IT nintedanib to achieve the same lung Cmax as oral delivery ([10]; 0.5 mg/kg IT compared to 100 mg/kg oral): about 200 fold
- Lung Cmax ([10]; 2.5 mg/kg IT): 57.5 mcg/gram
- plasma AUC as fraction of the 100 mg/kg oral dose ([10]; 2.5 mg/kg inhaled (IT)): about 1/9
- plasma AUC as fraction of the 100 mg/kg oral dose ([10]; 10 mg/kg inhaled (IT)): ⅓
- Lung Cmax ([10]; 100 mg/kg oral): 12.1 mcg/gram
- lung weights compared to control mice [11]: Neither oral nor inhaled (IN) nintedanib significantly affected lung weights
- device loaded dose resulting in the same lung AUC as the 150 mg oral dose [12]: 0.04 mg
- device loaded dose resulting in the same plasma AUC as a 150 mg oral dose [12]: 0.42 mg
